Test results reported in US11077100B2, “Tetrahydroquinoline derivatives as P2X7 receptor antagonists” (RaQualia Pharma Inc., priority 2017, dated 2021).

What was measured:
rat P2X7 = rat P2X7 (Rattus norvegicus (Rat), UniProt Q64663); assay: Rat P2X7 functional assay (Ca2+ influx, Fluo-4, FDSS); assay type: cell-based; settings: HEK293 cells stably expressing rat P2X7; BzATP final 10 microM; 7-point dose-response; read-out: Antagonistic activities with respect to the rat P2X7 receptor (IC50)
In short: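 HEK293 cells stably expressing rat P2X7 (5,000/well, plated 24 h before) loaded with Fluo-4; compounds preincubated 10 min at room temperature, then Ca2+ rise after 10 microM BzATP (final) read on FDSS (480/540 nm). IC50 from 7-point curves, duplicate wells.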

human P2X7 = human P2X7 (Homo sapiens (Human), UniProt Q99572); assay: Human P2X7 functional assay (Ca2+ influx, Fluo-4, FDSS); assay type: cell-based; settings: antagonistic activity with respect to the human P2X7 receptor; BzATP final concentration 80 microM
Chain of human P2X7 (Q99572 whole entry): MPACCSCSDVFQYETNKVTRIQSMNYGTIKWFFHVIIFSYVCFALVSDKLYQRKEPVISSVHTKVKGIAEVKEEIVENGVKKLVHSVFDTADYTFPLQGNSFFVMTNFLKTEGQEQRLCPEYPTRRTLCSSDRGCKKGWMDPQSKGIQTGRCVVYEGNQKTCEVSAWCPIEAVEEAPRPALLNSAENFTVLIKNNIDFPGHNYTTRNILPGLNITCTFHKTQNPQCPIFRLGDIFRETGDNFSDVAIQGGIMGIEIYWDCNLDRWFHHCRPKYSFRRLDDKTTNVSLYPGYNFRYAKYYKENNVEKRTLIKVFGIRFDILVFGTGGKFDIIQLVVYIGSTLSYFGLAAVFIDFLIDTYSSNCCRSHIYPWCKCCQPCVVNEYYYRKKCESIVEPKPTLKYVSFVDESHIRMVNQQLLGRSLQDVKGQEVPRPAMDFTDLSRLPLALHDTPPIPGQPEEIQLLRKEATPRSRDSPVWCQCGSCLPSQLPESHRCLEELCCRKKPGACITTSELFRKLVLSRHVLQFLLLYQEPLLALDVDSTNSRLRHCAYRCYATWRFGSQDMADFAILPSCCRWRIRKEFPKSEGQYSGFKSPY
In short: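 HEK293 cells stably expressing C-terminally FLAG-tagged human P2X7, loaded with Fluo-4. Compounds were preincubated for 10 min at room temperature, then 80 μM BzATP (final) was added and Ca2+ fluorescence read at 540 nm (480 nm excitation) by FDSS. IC50 values come from 7-point curves, duplicate wells.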

Chain of rat P2X7 (Q64663 whole entry): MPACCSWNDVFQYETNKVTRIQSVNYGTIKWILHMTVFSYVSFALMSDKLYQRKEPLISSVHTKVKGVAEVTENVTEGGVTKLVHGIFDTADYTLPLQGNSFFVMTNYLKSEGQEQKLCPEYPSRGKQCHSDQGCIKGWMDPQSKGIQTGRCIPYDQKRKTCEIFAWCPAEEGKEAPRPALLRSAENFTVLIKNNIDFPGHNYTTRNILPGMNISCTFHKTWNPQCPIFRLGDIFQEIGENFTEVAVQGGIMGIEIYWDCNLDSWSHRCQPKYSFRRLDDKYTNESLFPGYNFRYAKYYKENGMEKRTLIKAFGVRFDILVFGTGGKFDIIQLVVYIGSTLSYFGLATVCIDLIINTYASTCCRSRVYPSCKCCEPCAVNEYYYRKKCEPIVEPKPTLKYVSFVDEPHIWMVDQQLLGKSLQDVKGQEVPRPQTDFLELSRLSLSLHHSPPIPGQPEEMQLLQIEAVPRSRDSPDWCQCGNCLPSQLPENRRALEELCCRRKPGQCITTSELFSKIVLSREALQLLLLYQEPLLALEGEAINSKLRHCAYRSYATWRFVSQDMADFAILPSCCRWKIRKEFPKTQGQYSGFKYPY

SMILES	IC50 (rat P2X7)	IC50 (human P2X7)
O=C(NCc1ccc(Cl)cc1F)[C@]1(F)CC[C@H](O)c2ncccc21 [Example 146, (5S,8S)-N-(4-chloro-2-fluorobenzyl)-5-fluoro-8-hydroxy-5,6,7,8-tetrahydroquinoline-5-carboxamide]	< 1000 nM	< 50 nM
O=C(NCc1c(Cl)cc(C(F)(F)F)cc1Cl)[C@]1(F)CC[C@H](O)c2ncccc21 [Example 148, (5S,8S)-N-(2,6-dichloro-4-(trifluoromethyl)benzyl)-5-fluoro-8-hydroxy-5,6,7,8-tetrahydroquinoline-5-carboxamide]	< 1000 nM	< 50 nM
O=C(NCc1c(Cl)cc(Cl)cc1C(F)F)[C@]1(F)CC[C@H](O)c2ncccc21 [Example 149, (5S,8S)-N-(2,4-dichloro-6-(difluoromethyl)benzyl)-5-fluoro-8-hydroxy-5,6,7,8-tetrahydroquinoline-5-carboxamide]	< 1000 nM	< 50 nM
O=C(NCc1c(Cl)cc(F)cc1CO)[C@]1(F)CC[C@H](O)c2ncccc21 [Example 150, (5S,8S)-N-(2-chloro-4-fluoro-6-(hydroxymethyl)benzyl)-5-fluoro-8-hydroxy-5,6,7,8-tetrahydroquinoline-5-carboxamide]	< 1000 nM	< 50 nM
O=C(NCc1ccc(Cl)cc1C(F)(F)F)[C@]1(F)CC[C@H](O)c2ncccc21 [Example 157, (5S,8S)-N-(4-chloro-2-(trifiuoromethyl)benzyl)-5-fluoro-8-hydroxy-5,8,7,8-tetrahydroquinoline-5-carboxamide]	< 1000 nM	< 50 nM
O=C(NCc1cc(F)c(F)cc1Cl)[C@]1(F)CC[C@H](O)c2ncccc21 [Example 163, (5S,8S)-N-(2-chloro-4,5-difluorobenzyl)-5-fluoro-8-hydroxy-5,6,7,8-tetrahydroquinoline-5-carboxamide]	< 1000 nM	< 50 nM
O=C(NCc1c(Cl)ccc(Cl)c1Cl)[C@]1(F)CC[C@H](O)c2ncccc21 [Example 165, (5S,8S)-5-fluoro-8-hydroxy-N-(2,3,6-trichlorobenzyl)-5,6,7,8-tetrahydroquinoline-5-carboxamide]	< 1000 nM	< 50 nM
C[C@H](NC(=O)[C@]1(F)CC[C@H](O)c2ncccc21)c1ccc(Cl)c(Cl)c1Cl [Example 168, (5S,8S)-5-fluoro-8-hydroxy-N-((S)-1-(2,3,4-trichlorophenyl)ethyl)-5,6,7,8-tetrahydroquinoline-5-carboxamide]	< 1000 nM	101 to 300 nM
O=C(NCc1c(F)ccc(F)c1Cl)[C@]1(F)CC[C@H](O)c2ncccc21 [Example 170, (5S,8S)-N-(2-chloro-3,6-difluorobenzyl)-5-fluoro-8-hydroxy-5,6,7,8-tetrahydroquinoline-5-carboxamide]	< 1000 nM	< 50 nM
O=C(NCc1c(F)cc(F)cc1Cl)[C@]1(F)CC[C@H](O)c2ncccc21 [Example 176, (5S,8S)-N-(2-chloro-4,6-difluorobenzyl)-5-fluoro-8-hydroxy-5,6,7,8-tetrahydroquinoline-5-carboxamide]	< 1000 nM	< 50 nM
O=C(NCc1ncc(Cl)cc1Cl)[C@]1(F)CC[C@H](O)c2ncccc21 [Example 177, (5S,8S)-N-((3,5-dichloropyridin-2-yl)methyl)-5-fluoro-8-hydroxy-5,6,7,8-tetrahydroquinoline-5-carboxamide]	< 1000 nM	< 50 nM
O=C(NCc1cccc(F)c1C(F)(F)F)[C@]1(F)CC[C@H](O)c2ncccc21 [Example 178, (58,8S)-5-fluoro-N-(3-fluoro-2-(trifluoromethyl)benzyl)-8-hydroxy-5,6,7,8-tetrahydroquinoline-5-carboxamide]	< 1000 nM	< 50 nM
O=C(NCc1c(Cl)cccc1C(F)(F)F)[C@]1(F)CC[C@H](O)c2ncccc21 [Example 179, (5S,8S)-N-(2-chloro-6-(trifluoromethyl)benzyl)-5-fluoro-8-hydroxy-5,6,7,8-tetrahydroquinoline-5-carboxamide]	< 1000 nM	< 50 nM
O=C(NCc1c(F)cc(F)cc1F)[C@]1(F)CC[C@H](O)c2ncccc21 [Example 180, (5S,8S)-5-fluoro-8-hydroxy-N-(2,4,6-trifluorobenzyl)-5,6,7,8-tetrahydroquinoline-5-carboxamide]	< 1000 nM	< 50 nM
O=C(NCc1ccc(Br)cc1F)[C@]1(F)CC[C@H](O)c2ncccc21 [Example 182, (5S,8S)-N-(4-bromo-2-fluorobenzyl)-5-fluoro-8-hydroxy-5,6,7,8-tetrahydroquinoline-5-carboxamide]	< 1000 nM	< 50 nM
O=C(NCc1ccc(Cl)c(F)c1F)[C@]1(F)CC[C@H](O)c2ncccc21 [Example 183, (5S,8S)-N-(4-chloro-2,3-difluorobenzyl)-5-fluoro-8-hydroxy-5,6,7,8-tetrahydroquinoline-5-carboxamide]	< 1000 nM	< 50 nM
O=C(NCc1c(F)cc(Cl)cc1F)[C@]1(F)CC[C@H](O)c2ncccc21 [Example 184, (5S,8S)-N-(4-chloro-2,6-difluorobenzyl)-5-fluoro-8-hydroxy-5,6,7,8-tetrahydroquinoline-5-carboxamide]	< 1000 nM	< 50 nM
O=C(NCc1ccc(F)c(Cl)c1F)[C@]1(F)CC[C@H](O)c2ncccc21 [Example 185, (5S,8S)-N-(3-chloro-2,4-difluorobenzyl)-5-fluoro-8-hydroxy-5,6,7,8-tetrahydroquinoline-5-carboxamide]	< 1000 nM	< 50 nM
O=C(N[C@@H]1CCCc2ccccc21)[C@]1(F)CC[C@H](O)c2ncccc21 [Example 189, (5S,8S)-5-fluoro-8-hydroxy-N-((R)-1,2,3,4-tetrahydronaphthalen-1-yl)-5,6,7,8-tetrahydroquinoline 5-carboxamide]	< 1000 nM	< 50 nM
O=C(NCC1(N2CCOCC2)CCCCC1)[C@]1(F)CC[C@H](O)c2ncccc21 [Example 192, (5S,8S)-5-fluoro-8-hydroxy-N-((1-morpholinocyclohexyl)methyl)-5,6,7,8-tetrahydroquinoline-5-carboxamide]	< 1000 nM	< 50 nM
O=C(NCc1c(F)ccc(Cl)c1F)[C@]1(F)CC[C@H](O)c2ncccc21 [Example 193, (5S,8S)-N-(3-chloro-2,6-difluorobenzyl)-5-fluoro-8-hydroxy-5,6,7,8-tetrahydroquinoline-5-carboxamide]	< 1000 nM	< 50 nM
O=C(N[C@@H]1CCc2ccccc21)[C@]1(F)CC[C@H](O)c2ncccc21 [Example 196, (5S,8S)-N-((R)-2,3-dihydro-1H-inden-1-yl)-5-fluoro-8-hydroxy-5,6,7,8-tetrahydroquinoline-5-carboxamide]	< 1000 nM	< 50 nM

Now from value to compound:

IC50 (rat P2X7)	IC50 (human P2X7)	SMILES
< 1000 nM	< 50 nM	O=C(NCc1ccc(Br)cc1Cl)[C@@]1(F)CC[C@@H](O)c2ncccc21 [Example 153, (5R,8R)-N-(4-bromo-2-chlorobenzyl)-5-fluoro-8-hydroxy-5,6,7,8-tetrahydroquinoline-5-carboxamide]
< 1000 nM	< 50 nM	O=C(NCc1ccc(Br)cc1Cl)[C@]1(F)CC[C@H](O)c2ncccc21 [Example 154, (5S,8S)-N-(4-bromo-2-chlorobenzyl)-5-fluoro-8-hydroxy-5,6,7,8-tetrahydroquinoline-5-carboxamide]
< 1000 nM	< 50 nM	O=C(NCc1cccc(Cl)c1Cl)[C@@]1(F)CC[C@@H](O)c2ncccc21 [Example 158, (5R,8R)-N-(2,3-dichlorobenzyl)-5-fluoro-8-hydroxy-5,6,7,8-tetrahydroquinoline-5-carboxamide]
< 1000 nM	< 50 nM	O=C(NCc1cccc(Cl)c1Cl)[C@]1(F)CC[C@H](O)c2ncccc21 [Example 159, (5S,8S)-N-(2,3-dichlorobenzyl)-5-fluoro-8-hydroxy-5,6,7,8-tetrahydroquinoline-5-carboxamide]
< 1000 nM	< 50 nM	Cc1ccc(CNC(=O)[C@]2(F)CC[C@H](O)c3ncccc32)c(Cl)c1 [Example 167, (5S,8S)-N-(2-chloro-4-methylbenzyl)-5-fluoro-8-hydroxy-5,6,7,8-tetrahydroquinoline-5-carboxamide]
< 1000 nM	< 50 nM	O=C(NCc1cccc(F)c1Cl)[C@]1(F)CC[C@H](O)c2ncccc21 [Example 169, (5S,8S)-N-(2-chloro-3-fluorobenzyl)-5-fluoro-8-hydroxy-5,6,7,8-tetrahydroquinoline-5-carboxamide]
< 1000 nM	< 50 nM	O=C(NCc1c(F)cccc1Cl)[C@]1(F)CC[C@H](O)c2ncccc21 [Example 171, (5S,8S)-N-(2-chloro-6-fluorobenzyl)-5-fluoro-8-hydroxy-5,6,7,8-tetrahydroquinoline-5-carboxamide]
< 1000 nM	101 to 300 nM	COc1ccc(CNC(=O)[C@]2(F)CC[C@H](O)c3ncccc32)c(Cl)c1 [Example 172, (5S,8S)-N-(2-chloro-4-methoxybenzyl)-5-fluoro-8-hydroxy-5,6,7,8-tetrahydroquinoline-5-carboxamide]
< 1000 nM	< 50 nM	O=C(NCc1cccc(Cl)c1F)[C@]1(F)CC[C@H](O)c2ncccc21 [Example 190, (5S,8S)-N-(3-chloro-2-fluorobenzyl)-5-fluoro-8-hydroxy-5,6,7,8-tetrahydroquinoline-5-carboxamide]
< 1000 nM	< 50 nM	O=C(NCc1ccccc1Cl)[C@]1(F)CC[C@H](O)c2ncccc21 [Example 195, (5S,8S)-N-(2-chlorobenzyl)-5-fluoro-8-hydroxy-5,6,7,8-tetrahydroquinoline-5-carboxamide]
